pEC50, pIC50: −log10 of the molar value.
Assays:
primary human T-cells = experiment: Proliferation assay (5 days, CellTiter-Glo, CD3-stimulated T-cells); format: cell-based; details: for Emax proliferation (% activation): CD3 condition, normalised to DMSO (neutral) and 20 μM reference compound A1 = 100%; for pEC50: Homo sapiens, T-cell, 120 h, CD3-stimulated primary human T-cells, 5 days, CellTiter-Glo, fitted sigmoidal curve, read-out: Tcell Proliferation CD3 EC50
How it was run: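 Expanded primary human T-cells, 100 k cells/well, were stimulated with plate-coated CD3 antibody (donor-titrated) and given compound in a 5 or 6 pt dose response from 20 μM or 10 μM final top, 0.2% DMSO final. ATP was read by CellTiter-Glo after 5 days. EC50 and Emax were reported as % of 20 μM reference compound A1.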

[1] = target: T1, DGKα (hDGKalpha(1-735)-N-His) (Homo sapiens, UniProt P23743); experiment: In vitro DGK inhibition assay, DGKalpha ADP Glo (in house); format: biochemical; details: 4 nM DGKα, 25 μM ATP, 125 uM DLG in liposomes, 1 hour reaction
T1 construct: hDGKalpha(1-735)-N-His; His (N); made in house; host or cells: Sf21 insect cells (baculovirus)
T1 sequence (P23743 whole entry): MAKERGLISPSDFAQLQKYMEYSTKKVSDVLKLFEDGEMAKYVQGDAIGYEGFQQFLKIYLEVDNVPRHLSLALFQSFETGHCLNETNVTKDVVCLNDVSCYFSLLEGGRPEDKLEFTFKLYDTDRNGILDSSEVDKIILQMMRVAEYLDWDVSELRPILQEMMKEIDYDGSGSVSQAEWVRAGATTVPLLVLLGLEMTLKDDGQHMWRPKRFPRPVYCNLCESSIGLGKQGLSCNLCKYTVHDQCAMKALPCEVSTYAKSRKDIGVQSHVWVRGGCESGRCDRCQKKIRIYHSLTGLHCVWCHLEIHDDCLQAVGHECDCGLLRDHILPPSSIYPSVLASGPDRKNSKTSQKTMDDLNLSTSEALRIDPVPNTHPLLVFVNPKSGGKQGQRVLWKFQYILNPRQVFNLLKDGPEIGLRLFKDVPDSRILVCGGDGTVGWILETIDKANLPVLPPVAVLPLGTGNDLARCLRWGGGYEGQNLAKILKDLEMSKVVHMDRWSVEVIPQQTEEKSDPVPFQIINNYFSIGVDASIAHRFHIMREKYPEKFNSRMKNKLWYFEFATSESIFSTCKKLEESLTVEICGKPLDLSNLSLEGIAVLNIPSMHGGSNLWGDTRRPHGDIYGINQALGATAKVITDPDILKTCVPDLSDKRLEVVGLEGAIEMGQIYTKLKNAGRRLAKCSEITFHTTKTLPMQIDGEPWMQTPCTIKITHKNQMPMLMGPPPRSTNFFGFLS
How it was run: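 Full-length His-tagged human DGKα (4 nM) or DGKζ (2 nM), expressed in Sf21 cells, phosphorylated 125 µM DLG in PS/PC liposomes with ATP at 25 µM (α) or 50 µM (ζ) for 1 h. ADP was measured by ADP-Glo luminescence. Compounds were tested as 11-point 1:3 series in 2% DMSO.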

Row | SMILES | pIC50 [1] | Emax proliferation (% activation) (primary human T-cells) | pEC50 (primary human T-cells)
1 | CC1(Nc2nnc(-c3ccc4c(c3)N(Cc3ccc(-c5noc(C(F)(F)F)n5)cc3)C(=O)[C@@H](N)CS4(=O)=O)o2)CC(F)(F)C1 [Example 72, (3R)-3-amino-7-[5-[(3,3-difluoro-1-methyl-cyclobutyl)amino]-1,3,4-oxadiazol-2-yl]-1,1-dioxo-5-[[4-[5-(trifluoromethyl)-1,2,4-oxadiazol-3-yl]phenyl]methyl]-2,3-dihydro-1λ^6,5-benzothiazepin-4-one] | < 4.20 | 252 | 5.78
2 | N[C@H]1CS(=O)(=O)c2ccc(-c3nnc(N4CCOC(C(F)(F)F)C4)o3)cc2N(Cc2ccc(-c3ccc(C(F)(F)F)cc3)cc2)C1=O (stereo partly drawn) [Example 73, (3R)-3-amino-1,1-dioxo-7-[5-[2-(trifluoromethyl)morpholin-4-yl]-1,3,4-oxadiazol-2-yl]-5-[[4-[4-(trifluoromethyl)phenyl]phenyl]methyl]-2,3-dihydro-1λ^6,5-benzothiazepin-4-one] | < 4.20 | 95 | 6.08
3 | N[C@H]1CS(=O)(=O)c2ccc(-c3nnc(N4CCOC(C(F)(F)F)C4)o3)cc2N(Cc2ccc(-c3ccc(C(F)(F)F)cn3)cc2)C1=O (stereo partly drawn) [Example 75, (3R)-3-amino-1,1-dioxo-7-[5-[2-(trifluoromethyl)morpholin-4-yl]-1,3,4-oxadiazol-2-yl]-5-[[4-[5-(trifluoromethyl)-2-pyridyl]phenyl]methyl]-2,3-dihydro-1λ^6,5-benzothiazepin-4-one] | 4.34 | 115 | 5.92
4 | COc1ccc(-c2ccc(CN3C(=O)[C@@H](N)CS(=O)(=O)c4ccc(-c5nnc(N6CCC(F)(F)C6)o5)cc43)cc2)cc1 [Example 76, (3R)-3-amino-7-[5-(3,3-difluoropyrrolidin-1-yl)-1,3,4-oxadiazol-2-yl]-5-[[4-(4-methoxyphenyl)phenyl]methyl]-1,1-dioxo-2,3-dihydro-1λ^6,5-benzothiazepin-4-one] | 4.58 | 263 | 5.87
5 | N[C@H]1CS(=O)(=O)c2ccc(-c3nnc(N4CCOC5(CC5)C4)o3)cc2N(Cc2ccc(-c3noc(C(F)(F)F)n3)cc2)C1=O [Example 77] | 4.32 | 58 | 5.41
6 | N[C@H]1CS(=O)(=O)c2ccc(-c3nnc(N4CCOC(F)(F)C4)o3)cc2N(Cc2ccc(-c3noc(C(F)(F)F)n3)cc2)C1=O [Example 78, (3R)-3-amino-7-[5-(2,2-difluoromorpholin-4-yl)-1,3,4-oxadiazol-2-yl]-1,1-dioxo-5-[[4-[5-(trifluoromethyl)-1,2,4-oxadiazol-3-yl]phenyl]methyl]-2,3-dihydro-1λ^6,5-benzothiazepin-4-one] | 4.36 | 150 | 5.96
7 | COc1ccc(-c2ccc(CN3C(=O)[C@@H](N)CS(=O)(=O)c4ccc(-c5nnc(N6CCOC(F)(F)C6)o5)cc43)cc2)cc1 [Example 79, (3R)-3-amino-7-[5-(2,2-difluoromorpholin-4-yl)-1,3,4-oxadiazol-2-yl]-5-[[4-(4-methoxyphenyl)phenyl]methyl]-1,1-dioxo-2,3-dihydro-1λ^6,5-benzothiazepin-4-one] | 4.40 | 167 | 6.00
8 | COc1ccc(-c2ccc(CN3C(=O)[C@@H](N)CS(=O)(=O)c4ccc(-c5nnc(N(C)CC(F)(F)F)o5)cc43)cc2)cc1 [Example 81, (3R)-3-amino-5-[[4-(4-methoxyphenyl)phenyl]methyl]-7-[5-[methyl(2,2,2-trifluoroethyl)amino]-1,3,4-oxadiazol-2-yl]-1,1-dioxo-2,3-dihydro-1λ^6,5-benzothiazepin-4-one] | 4.41 | 138 | 6.14
9 | N[C@H]1CS(=O)(=O)c2ccc(-c3noc(C4(N)COC4)n3)cc2N(Cc2ccc(-c3noc(C(F)(F)F)n3)cc2)C1=O [Example 84, (3R)-3-amino-7-[5-(3-aminooxetan-3-yl)-1,2,4-oxadiazol-3-yl]-1,1-dioxo-5-[[4-[5-(trifluoromethyl)-1,2,4-oxadiazol-3-yl]phenyl]methyl]-2,3-dihydro-1lambda6,5-benzothiazepin-4-one] | < 4.20 | 151 | 5.76
10 | N[C@H]1CS(=O)(=O)c2ccc(-c3noc(-c4cccnc4Cl)n3)cc2N(Cc2ccc(-c3noc(C4CC4)n3)cc2)C1=O [Example 85, (3R)-3-amino-7-[5-(2-chloro-3-pyridyl)-1,2,4-oxadiazol-3-yl]-5-[[4-(5-cyclopropyl-1,2,4-oxadiazol-3-yl)phenyl]methyl]-1,1-dioxo-2,3-dihydro-1λ^6,5-benzothiazepin-4-one] | < 4.20 | 62 | 5.09
11 | Cc1nc(F)ccc1-c1nc(-c2ccc3c(c2)N(Cc2ccc(-c4noc(C5CC5)n4)cc2)C(=O)[C@@H](N)CS3(=O)=O)no1 [Example 86, (3R)-3-amino-5-[[4-(5-cyclopropyl-1,2,4-oxadiazol-3-yl)phenyl]methyl]-7-[5-(6-fluoro-2-methyl-3-pyridyl)-1,2,4-oxadiazol-3-yl]-1,1-dioxo-2,3-dihydro-1λ^6,5-benzothiazepin-4-one] | < 4.20 | 99 | 5.78
12 | N[C@H]1CS(=O)(=O)c2ccc(-c3noc(-c4cccnc4C(F)(F)F)n3)cc2N(Cc2ccc(-c3noc(C4CC4)n3)cc2)C1=O [Example 87, (3R)-3-amino-5-[[4-(5-cyclopropyl-1,2,4-oxadiazol-3-yl)phenyl]methyl]-1,1-dioxo-7-[5-[2-(trifluoromethyl)-3-pyridyl]-1,2,4-oxadiazol-3-yl]-2,3-dihydro-1λ^6,5-benzothiazepin-4-one] | < 4.20 | 106 | 5.44

Now those with a higher pIC50 [1], led by results:

Row | pIC50 [1] | SMILES | Emax proliferation (% activation) (primary human T-cells) | pEC50 (primary human T-cells)
13 | 4.61 | N[C@H]1CS(=O)(=O)c2ccc(-c3nnc(N4CCC(F)(F)CC4)o3)cc2N(Cc2ccc(-c3nnc(C(F)(F)F)o3)cc2)C1=O [Example 71, (3R)-3-amino-7-[5-(4,4-difluoro-1-piperidyl)-1,3,4-oxadiazol-2-yl]-1,1-dioxo-5-[[4-[5-(trifluoromethyl)-1,3,4-oxadiazol-2-yl]phenyl]methyl]-2,3-dihydro-1λ^6,5-benzothiazepin-4-one] | 129 | 5.54
14 | 5.44 | N[C@H]1CS(=O)(=O)c2ccc(-c3nnc(N4CCOC(C(F)(F)F)C4)o3)cc2N(Cc2ccc(-c3noc(C(F)(F)F)n3)cc2)C1=O (stereo partly drawn) [Example 74, (3R)-3-amino-1,1-dioxo-7-[5-[2-(trifluoromethyl)morpholin-4-yl]-1,3,4-oxadiazol-2-yl]-5-[[4-[5-(trifluoromethyl)-1,2,4-oxadiazol-3-yl]phenyl]methyl]-2,3-dihydro-1λ^6,5-benzothiazepin-4-one] | 148 | 6.28
15 | 5.08 | CC(C)(C)c1nnc(-c2ccc3c(c2)N(Cc2ccc(-c4nc(C(F)(F)F)co4)cc2)C(=O)[C@@H](N)CS3(=O)=O)o1 [Example 89, (3R)-3-amino-7-(5-tert-butyl-1,3,4-oxadiazol-2-yl)-1,1-dioxo-5-[[4-[4-(trifluoromethyl)oxazol-2-yl]phenyl]methyl]-2,3-dihydro-1λ^6,5-benzothiazepin-4-one] | 153 | 6.69
16 | 5.37 | CC(C)(C)c1nnc(-c2ccc3c(c2)N(Cc2ccc(-n4cnc(C(F)(F)F)n4)cc2)C(=O)[C@@H](N)CS3(=O)=O)o1 [Example 91, (3R)-3-amino-7-(5-tert-butyl-1,3,4-oxadiazol-2-yl)-1,1-dioxo-5-[[4-[3-(trifluoromethyl)-1,2,4-triazol-1-yl]phenyl]methyl]-2,3-dihydro-126,5-benzothiazepin-4-one] | 127 | 6.39
17 | 5.33 | N[C@H]1CS(=O)(=O)c2ccc(-c3nnc(C4(C5CC5)CCCO4)o3)cc2N(Cc2ccc(-c3nnc(C(F)(F)F)o3)cc2)C1=O (stereo partly drawn) [Example 97, (3R)-3-amino-7-[5-(2-cyclopropyltetra-hydrofuran-2-yl)-1,3,4-oxadiazol-2-yl]-1,1-dioxo-5-[[4-[5-(trifluoromethyl)-1,3,4-oxadiazol-2-yl]phenyl]methyl]-2,3-dihydro-1λ6,5-benzothiazepin-4-one] | 96 | 6.43
18 | 4.62 | CC(c1nc(-c2ccc(CN3C(=O)[C@@H](N)CS(=O)(=O)c4ccc(-c5nnc(C6(N)CCCCC6)o5)cc43)cc2)no1)C(F)(F)F (stereo partly drawn) [Example 98, (3R)-3-amino-7-[5-(1-aminocyclohexyl)-1,3,4-oxadiazol-2-yl]-1,1-dioxo-5-[[4-[5-(2,2,2-trifluoro-1-methyl-ethyl)-1,2,4-oxadiazol-3-yl]phenyl]methyl]-2,3-dihydro-1λ^6,5-benzothiazepin-4-one] | 97 | 5.74

From patent publication US20260138976A1 (Hoffmann-La Roche Inc., priority 2022, published 2026)
